The record followed here is patent US8846698B2, “Pyrrolo[2,3-d]pyrimidine tropomysin-related kinase inhibitors” (Pfizer Limited, priority 2011, dated 2014).

For series [1], the target named is TRKB (Homo sapiens (Human), UniProt Q16620). The series can be described thus: cell-based. The note with it: TrkB cell potency, TRKB PathHunter cell line. The procedure: (§1) After the Detection Reagent addition, plates are covered and incubated at room temperature for 60 minutes. […] Test compound data are expressed as percentage inhibition defined by HPE and ZPE values for each plate. Percentage inhibition in the presence of test compound is plotted against compound concentration on a log scale to determine an IC50 from the resultant sigmoid curve. Cell Based Assays were carried out using Cell lines from DiscoveRx utilising their PathHunter technology and reagents in an antagonist assay:
(§2) The assays are based upon DiscoveRx's proprietary Enzyme Fragment Complementation (EFC) technology. In the case of the TRK cell lines, the enzyme acceptor (EA) protein is fused to a SH2 protein and the TRK receptor of interest has been tagged with a Prolink tag.
(§3) Upon neurotrophin binding, the TRK receptor becomes phosphorylated, and the tagged SH2 protein binds.
(§4) This means that the IC50 is a good measure of affinity and should be unaffected by concentration neurotrophin stimulant.
(§5) Cryopreserved PathHunter cells are used from either in-house produced batches or bulk batches bought directly from DiscoveRx. Cryopreserved cells are resuscitated, spun 1000 rpm for 4 min to remove freezing media, and resuspended in MEM+0.5% horse serum (both Invitrogen) to 5e^5 cells/ml. The cells are then plated using a Multidrop into Greiner white tissue culture treated plates at 20 ul/well and incubated for 24 h at 37° C., 5% CO2, high humidity. On the day of the assay, the cell plates are allowed to cool to room temperature for 30 min prior to the assay.
(§6) Plates containing 1 ul of serially diluted compound, standard and HPE/ZPE are diluted 1/66 in assay buffer (PBS minus Ca^2+, minus Mg^2+ with 0.05% pluronic F127) using a Wellmate. […] The plates are left at room temperature for a further 2 hours before addition of 10 ul of the DiscoveRx PathHunter detection reagent (made up by adding 1 part Galacton Star, 5 parts Emerald II and 19 parts Cell Assay Buffer as per the manufacturer's instructions).
(§7) After reagent addition, plates are covered and incubated at room temperature for 60 minutes. Luminescence signal is read using an Envision. Test compound data are expressed as percentage inhibition defined by HPE and ZPE values for each plate. Percentage inhibition in the presence of test compound is plotted against compound concentration on a log scale to determine an […] from the resultant sigmoid curve.

Series [2] addresses T1, TRKA (Homo sapiens (Human), UniProt P04629). The series can be described thus: Cell based DiscoveRx PathHunter antagonist assay, TRKA cell line. The note with it: read-out: TrkA cell potency. The procedure:
as §1, §2, §3, §4, §5, §6, §7
Target sequence in this assay (P04629 33-796): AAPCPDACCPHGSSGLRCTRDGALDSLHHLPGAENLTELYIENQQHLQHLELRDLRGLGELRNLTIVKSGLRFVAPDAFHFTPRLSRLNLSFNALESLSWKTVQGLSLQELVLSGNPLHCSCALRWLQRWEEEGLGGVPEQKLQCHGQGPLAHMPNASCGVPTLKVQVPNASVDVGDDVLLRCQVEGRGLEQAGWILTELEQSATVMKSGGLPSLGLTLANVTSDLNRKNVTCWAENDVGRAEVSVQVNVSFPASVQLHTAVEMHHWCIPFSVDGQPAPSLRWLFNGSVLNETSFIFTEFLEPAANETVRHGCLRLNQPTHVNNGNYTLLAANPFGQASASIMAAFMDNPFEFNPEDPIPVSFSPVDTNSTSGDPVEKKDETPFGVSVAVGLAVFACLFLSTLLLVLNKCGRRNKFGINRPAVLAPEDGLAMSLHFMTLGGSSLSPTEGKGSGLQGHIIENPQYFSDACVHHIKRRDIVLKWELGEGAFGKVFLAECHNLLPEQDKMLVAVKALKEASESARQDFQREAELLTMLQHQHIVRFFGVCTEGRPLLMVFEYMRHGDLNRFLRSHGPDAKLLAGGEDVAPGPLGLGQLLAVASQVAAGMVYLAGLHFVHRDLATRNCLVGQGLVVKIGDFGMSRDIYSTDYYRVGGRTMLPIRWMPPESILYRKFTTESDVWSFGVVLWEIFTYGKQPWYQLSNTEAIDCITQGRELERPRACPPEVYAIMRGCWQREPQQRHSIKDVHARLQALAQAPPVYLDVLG

Series [3] deals with T1, TRKA. In words: Isolated TRK enzyme assay (HTRF KinEASE-TK), TRKA. It is filed as biochemical. The note with it: isolated TRKA enzyme; read-out: TrkA enzyme potency.
Target sequence in this assay (P04629 441-796): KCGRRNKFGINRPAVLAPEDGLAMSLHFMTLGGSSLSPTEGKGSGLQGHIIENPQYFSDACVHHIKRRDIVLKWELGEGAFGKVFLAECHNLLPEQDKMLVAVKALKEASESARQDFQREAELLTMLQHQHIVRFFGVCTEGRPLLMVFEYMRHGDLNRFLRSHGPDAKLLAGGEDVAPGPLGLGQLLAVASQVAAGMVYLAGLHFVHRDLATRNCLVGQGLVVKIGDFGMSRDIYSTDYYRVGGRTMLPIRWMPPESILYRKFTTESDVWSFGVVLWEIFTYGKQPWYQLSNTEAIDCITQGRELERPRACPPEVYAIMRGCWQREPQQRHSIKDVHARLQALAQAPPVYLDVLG
Series [4] has as its target MDR1 (Homo sapiens (Human), UniProt P08183). In words: MDCK-MDR1 assay (in vitro brain penetration). Format: in vitro ADME. The note with it: for Papp B→A / Papp A→B: human; for Papp B→A: MDCK-MDR1, MDCK-MDR1, B to A, read-out: MDCK MDR1 Papp BA; for Papp A→B / MDCK MDR1 Papp AB: MDCK-MDR1, A to B; for Papp A→B: read-out: MDCK MDR1 Papp AB; for MDCK MDR1 Papp BA: MDCK-MDR1, B to A. An excerpt: MDCK-MDR1: MDCK-MDR1 data were collected according to the method described in “Are MDCK Cells Transfected with the Human MDR1 Gene a Good Model of the Human Intestinal Mucosa?”
http://www.springerlink.com/content/qfhqlqbr4fnp3 khf/fulltext.pdf

Chain of TRKB (Q16620 32-822 limits assumed): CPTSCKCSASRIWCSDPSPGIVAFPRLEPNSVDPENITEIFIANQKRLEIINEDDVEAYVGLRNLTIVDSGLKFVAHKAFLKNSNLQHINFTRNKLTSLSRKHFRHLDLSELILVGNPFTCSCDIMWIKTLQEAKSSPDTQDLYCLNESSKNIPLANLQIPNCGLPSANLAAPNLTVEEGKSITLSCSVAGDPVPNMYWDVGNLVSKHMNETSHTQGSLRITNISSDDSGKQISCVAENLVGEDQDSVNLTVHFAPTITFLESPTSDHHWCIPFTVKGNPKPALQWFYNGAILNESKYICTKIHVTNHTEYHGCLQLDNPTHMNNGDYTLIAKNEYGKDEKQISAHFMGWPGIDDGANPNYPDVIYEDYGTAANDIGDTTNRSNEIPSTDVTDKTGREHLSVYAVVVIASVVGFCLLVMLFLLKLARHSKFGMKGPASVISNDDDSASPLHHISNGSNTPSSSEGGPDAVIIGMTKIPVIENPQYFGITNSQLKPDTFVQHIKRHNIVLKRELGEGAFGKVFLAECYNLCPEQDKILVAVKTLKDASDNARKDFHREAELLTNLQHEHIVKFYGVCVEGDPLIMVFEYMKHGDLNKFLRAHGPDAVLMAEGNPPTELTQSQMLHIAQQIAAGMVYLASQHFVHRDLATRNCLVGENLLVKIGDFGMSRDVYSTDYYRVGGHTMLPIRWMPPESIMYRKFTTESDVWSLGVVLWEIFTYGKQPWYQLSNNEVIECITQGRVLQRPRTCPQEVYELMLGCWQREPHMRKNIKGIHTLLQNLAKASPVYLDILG
Chain of MDR1 (P08183 whole entry): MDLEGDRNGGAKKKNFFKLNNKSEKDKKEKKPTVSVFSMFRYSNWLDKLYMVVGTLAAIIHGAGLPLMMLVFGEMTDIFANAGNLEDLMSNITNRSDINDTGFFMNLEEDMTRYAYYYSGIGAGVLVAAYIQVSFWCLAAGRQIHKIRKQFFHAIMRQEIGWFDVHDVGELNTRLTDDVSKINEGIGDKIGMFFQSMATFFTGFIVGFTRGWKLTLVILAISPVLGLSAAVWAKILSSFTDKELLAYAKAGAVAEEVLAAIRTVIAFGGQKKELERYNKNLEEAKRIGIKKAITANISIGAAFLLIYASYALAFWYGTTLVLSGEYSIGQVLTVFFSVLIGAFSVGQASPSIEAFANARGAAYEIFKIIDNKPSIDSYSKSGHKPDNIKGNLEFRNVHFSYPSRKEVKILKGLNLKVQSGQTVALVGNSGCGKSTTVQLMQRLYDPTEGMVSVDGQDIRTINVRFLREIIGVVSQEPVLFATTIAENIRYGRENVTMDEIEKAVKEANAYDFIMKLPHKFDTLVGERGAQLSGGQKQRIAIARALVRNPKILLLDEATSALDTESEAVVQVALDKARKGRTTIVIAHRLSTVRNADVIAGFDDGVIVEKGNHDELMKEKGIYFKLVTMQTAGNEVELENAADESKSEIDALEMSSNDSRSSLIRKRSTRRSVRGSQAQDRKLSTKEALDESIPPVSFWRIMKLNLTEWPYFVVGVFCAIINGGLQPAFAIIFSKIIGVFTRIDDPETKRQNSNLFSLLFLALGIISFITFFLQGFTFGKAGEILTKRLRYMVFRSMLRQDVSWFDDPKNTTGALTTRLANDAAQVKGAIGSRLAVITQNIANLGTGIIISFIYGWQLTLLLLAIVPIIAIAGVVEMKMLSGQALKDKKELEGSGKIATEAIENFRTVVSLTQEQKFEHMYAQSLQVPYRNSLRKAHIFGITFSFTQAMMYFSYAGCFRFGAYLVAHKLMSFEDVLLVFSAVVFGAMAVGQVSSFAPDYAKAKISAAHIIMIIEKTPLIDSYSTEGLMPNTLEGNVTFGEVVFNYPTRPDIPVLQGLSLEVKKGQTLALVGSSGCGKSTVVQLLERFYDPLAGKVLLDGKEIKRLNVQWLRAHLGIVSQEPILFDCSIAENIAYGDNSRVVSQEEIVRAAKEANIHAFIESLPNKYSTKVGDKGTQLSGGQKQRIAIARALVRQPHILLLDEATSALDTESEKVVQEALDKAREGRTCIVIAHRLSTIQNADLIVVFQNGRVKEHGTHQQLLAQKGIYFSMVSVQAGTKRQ

On to `CC(CO)n1cc(C(=O)c2cncc(NC(=O)Cc3ccc(F)cn3)c2)c2cnc(N)nc21` (single isomer, unassigned) [Example 37, N-(5-{[2-amino-7-(2-hydroxy-1-methylethyl)-7H-pyrrolo[2,3-d]pyrimidin-5-yl]carbonyl}pyridin-3-yl)-2-(5-fluoropyridin-2-yl)acetamide], for which the IC50 in series [1] was 571 nM; in series [2] it was 2250 nM; in series [3], 67 nM.

Consider `CC(CO)n1cc(C(=O)c2cncc(NC(=O)Cn3ccc(C(F)(F)F)n3)c2)c2cnc(N)nc21` (single isomer, unassigned) [Example 38, N-(5-{[2-amino-7-(2-hydroxy-1-methylethyl)-7H-pyrrolo[2,3-d]pyrimidin-5-yl]carbonyl}pyridin-3-yl)-2-[3-(trifluoromethyl)-1H-pyrazol-1-yl]acetamide], for which the IC50 in series [1] is 589 nM; in series [2], 1060 nM; in series [3], 7.2 nM. For the same compound, in series [4], the Papp B→A was 2.1 ×10⁻⁶ cm/s. In addition, the Papp A→B in series [4] was < 1 ×10⁻⁶ cm/s.

For the compound `CC(CO)n1cc(C(=O)c2cncc(NC(=O)Cn3cc(C(F)(F)F)nn3)c2)c2cnc(N)nc21` (single isomer, unassigned) [Example 39, N-(5-{[2-amino-7-(2-hydroxy-1-methylethyl)-7H-pyrrolo[2,3-d]pyrimidin-5-yl]carbonyl}pyridin-3-yl)-2-[4-(trifluoromethyl)-1H-1,2,3-triazol-1-yl]acetamide], the IC50 in series [1] was 4710 nM; in series [2], > 8660 nM; in series [3], 24 nM. Also, the Papp B→A in series [4] is < 1 ×10⁻⁶ cm/s. The Papp A→B in series [4] was < 1 ×10⁻⁶ cm/s.

`CC(CO)n1cc(C(=O)c2cncc(NC(=O)Cc3ccc(F)cn3)c2)c2cnc(N)nc21` (single isomer, unassigned) [Example 40, N-(5-{[2-amino-7-(2-hydroxy-1-methylethyl)-7H-pyrrolo[2,3-d]pyrimidin-5-yl]carbonyl}pyridin-3-yl)-2-(5-fluoropyridin-2-yl)acetamide]: the figures for the IC50 in series [1], in series [2] and in series [3] were 506 nM, 2580 nM and 67 nM, respectively. Also, the Papp B→A in series [4] was determined as 2.4 ×10⁻⁶ cm/s. Moreover, in series [4], the Papp A→B was < 1 ×10⁻⁶ cm/s.

For `CC(CO)n1cc(C(=O)c2cncc(NC(=O)Cc3ccc(Cl)cn3)c2)c2cnc(N)nc21` (single isomer, unassigned) [Example 41, N-(5-{[2-amino-7-(2-hydroxy-1-methylethyl)-7H-pyrrolo[2,3-d]pyrimidin-5-yl]carbonyl}pyridin-3-yl)-2-(5-chloropyridin-2-yl)acetamide], the IC50 stood at 70 nM in series [1], 203 nM in series [2] and 7.6 nM in series [3]. Moreover, in series [4], the “MDCK MDR1 Papp AB” value is <1 ×10⁻⁶ cm/s. For the same compound, the “MDCK MDR1 Papp BA” value in series [4] was found to be 6.3 ×10⁻⁶ cm/s.

As for `CC(CO)n1cc(C(=O)c2cncc(NC(=O)Cn3ccc(C(F)(F)F)n3)c2)c2cnc(N)nc21` (single isomer, unassigned) [Example 44, N-(5-{[2-amino-7-(2-hydroxy-1-methylethyl)-7H-pyrrolo[2,3-d]pyrimidin-5-yl]carbonyl}pyridin-3-yl)-2-[3-(trifluoromethyl)-1H-pyrazol-1-yl]acetamide], the IC50 was 554 nM in series [1], 996 nM in series [2] and 12 nM in series [3]. Further, the “MDCK MDR1 Papp AB” value in series [4] is <1 ×10⁻⁶ cm/s. In addition, the “MDCK MDR1 Papp BA” value in series [4] worked out at 1.6 ×10⁻⁶ cm/s.

In the case of `CC(CO)n1cc(C(=O)c2cncc(NC(=O)Cn3cc(C(F)(F)F)nn3)c2)c2cnc(N)nc21` (single isomer, unassigned) [Example 45, N-(5-{[2-amino-7-(2-hydroxy-1-methylethyl)-7H-pyrrolo[2,3-d]pyrimidin-5-yl]carbonyl}pyridin-3-yl)-2-[4-(trifluoromethyl)-1H-1,2,3-triazol-1-yl]acetamide], the IC50 in series [1] is 3790 nM; in series [2], > 8660 nM; in series [3] it was 25 nM. In addition, the “MDCK MDR1 Papp AB” value in series [4] was <1 ×10⁻⁶ cm/s. In addition, in series [4], the “MDCK MDR1 Papp BA” value is <1 ×10⁻⁶ cm/s.

As to `CC(C)(C)n1cc(C(=O)c2cncc(NC(=O)Cc3ccc(F)cn3)c2)c2cncnc21` [Example 1, N-{5-[(7-tert-Butyl-7H-pyrrolo[2,3-d]pyrimidin-5-yl)carbonyl]pyridin-3-yl}-2-(5-fluoropyridin-2-yl)acetamide], the IC50 in series [1] came out at 1.5 nM; in series [2], 9.5 nM; in series [3], 3.7 nM. The Papp B→A in series [4] came out at 14 ×10⁻⁶ cm/s. In addition, in series [4], the Papp A→B came out at 5.5 ×10⁻⁶ cm/s.

With `CC(C)(C)n1cc(C(=O)c2cncc(NC(=O)Cn3ccc(C4CC4)n3)c2)c2cncnc21` [Example 3, N-{5-[(7-tert-butyl-7H-pyrrolo[2,3-d]pyrimidin-5-yl)carbonyl]pyridin-3-yl}-2-(3-cyclopropyl-1H-pyrazol-1-yl)acetamide], the IC50 in series [1] is 1.8 nM; in series [2], 5.1 nM; in series [3] it was 4.1 nM. Also, the Papp B→A in series [4] was 20 ×10⁻⁶ cm/s. Further, in series [4], the Papp A→B was 8.7 ×10⁻⁶ cm/s.

For the compound `CC(C)(C)n1cc(C(=O)c2cncc(NC(=O)Cc3ccc(Cl)cn3)c2)c2cncnc21` [Example 6, N-{5-[(7-tert-butyl-7H-pyrrolo[2,3-d]pyrimidin-5-yl)carbonyl]pyridin-3-yl}-2-(5-chloropyridin-2-yl)acetamide], the IC50 in series [1] is 1.3 nM; in series [2], 2 nM; in series [3] it was 2.5 nM. The Papp B→A in series [4] came out at 16 ×10⁻⁶ cm/s. In addition, in series [4], the Papp A→B turned out to be 6.9 ×10⁻⁶ cm/s.

As for `Cc1cc(C(F)(F)F)nn1CC(=O)Nc1cncc(C(=O)c2cn([C@H](C)CO)c3ncncc23)c1` [Example 17, N-[5-({7-[(1R)-2-Hydroxy-1-methylethyl]-7H-pyrrolo[2,3-d]pyrimidin-5-yl}carbonyl)pyridin-3-yl]-2-[5-methyl-3-(trifluoromethyl)-1H-pyrazol-1-yl]acetamide], the IC50 in series [1] was 45 nM; in series [2], 103 nM; in series [3] it was 23 nM. For the same compound, the Papp B→A in series [4] turned out to be 13 ×10⁻⁶ cm/s. Further, in series [4], the Papp A→B was < 1 ×10⁻⁶ cm/s.

For the compound `C[C@H](CO)n1cc(C(=O)c2cncc(NC(=O)Cn3cc(C4CC4)nn3)c2)c2cncnc21` [Example 18, 2-(4-cyclopropyl-1H-1,2,3-triazol-1-yl)-N-[5-({7-[(1R)-2-hydroxy-1-methylethyl]-7H-pyrrolo[2,3-d]pyrimidin-5-yl}carbonyl)pyridin-3-yl]acetamide], the IC50 in series [1] is 5300 nM; in series [2], > 8660 nM; in series [3], 128 nM. For the same compound, the Papp B→A in series [4] is < 1 ×10⁻⁶ cm/s. For the same compound, the Papp A→B in series [4] was < 1 ×10⁻⁶ cm/s.

As for `C[C@H](CO)n1cc(C(=O)c2cncc(NC(=O)Cn3cc(C(F)(F)F)nn3)c2)c2cncnc21` [Example 21, N-[5-({7-[(1R)-2-hydroxy-1-methylethyl]-7H-pyrrolo[2,3-d]pyrimidin-5-yl}carbonyl)pyridin-3-yl]-2-[4-(trifluoromethyl)-1H-1,2,3-triazol-1-yl]acetamide], the IC50 was 1770 nM in series [1], 5740 nM in series [2] and 71 nM in series [3]. Also, the Papp B→A in series [4] worked out at 1.3 ×10⁻⁶ cm/s. In series [4], the Papp A→B is < 1 ×10⁻⁶ cm/s.

As for `C[C@H](CO)n1cc(C(=O)c2cncc(NC(=O)Cn3ccc(C(F)(F)F)n3)c2)c2cncnc21` [Example 22, N-[5-({7-[(1R)-2-hydroxy-1-methylethyl]-7H-pyrrolo[2,3-d]pyrimidin-5-yl}carbonyl)pyridin-3-yl]-2-[3-(trifluoromethyl)-1H-pyrazol-1-yl]acetamide], the IC50 was 190 nM in series [1], 596 nM in series [2] and 25 nM in series [3]. For the same compound, in series [4], the Papp B→A came out at 6.9 ×10⁻⁶ cm/s. The Papp A→B in series [4] was < 1 ×10⁻⁶ cm/s.

Take `C[C@H](CO)n1cc(C(=O)c2cncc(NC(=O)Cc3ccc(Cl)cn3)c2)c2cncnc21` [Example 23, 2-(5-chloropyridin-2-yl)-N-[5-({7-[(1R)-2-hydroxy-1-methylethyl]-7H-pyrrolo[2,3-d]pyrimidin-5-yl}carbonyl)pyridin-3-yl]acetamide]: the IC50 was 52 nM in series [1], 93 nM in series [2] and 26 nM in series [3]. In series [4], the Papp B→A turned out to be 31 ×10⁻⁶ cm/s. Further, the Papp A→B in series [4] is < 1 ×10⁻⁶ cm/s.
